Experimental data reported in ChEMBL document CHEMBL3865792, “Antioxidant and antitumor activity of trolox, trolox succinate, and α-tocopheryl succinate conjugates with nitroxides” (Eur J Med Chem, 2016).

Tested on: not listed separately
Experiment: Genotoxicity in Escherichia coli PQ37 expressing lacZ gene assessed as ratio of inducible beta-galactosidase activity to alkaline phosphatase activity at 30 mM after 2 hrs by SOS-chromotest relative to control
Type: toxicity
Conditions: Escherichia coli PQ37 cells expressing lacZ gene, read-out: FC

Row | SMILES | fold induction at 2 h, 30000 µM
1 | Cc1c(C)c2c(c(C)c1OC(=O)CCC(=O)O)CCC(C)(C(=O)O)O2 (stereo not given) | 1.1
2 | Cc1c(C)c2c(c(C)c1OC(=O)CCC(=O)O)CCC(C)(C(=O)NCC1CC(C)(C)N([O])C1(C)C)O2 (stereo not given) | 1.3

Tested on: not listed separately
Experiment: Genotoxicity in Escherichia coli PQ37 expressing lacZ gene assessed as ratio of inducible beta-galactosidase activity to alkaline phosphatase activity at 1 mM after 2 hrs by SOS-chromotest relative to control
Type: toxicity
Conditions: Escherichia coli PQ37 cells expressing lacZ gene, read-out: FC

Row | SMILES | fold induction at 2 h, 1000 µM
3 | CC(C)(C)OO [TERT-BUTYL HYDROPEROXIDE] | 11.6

Tested on: Salmonella typhimurium
Experiment: Genotoxicity in Salmonella typhimurium TA102 harboring […] mutant assessed as frequency of reversion from histidine auxotrophy to prototrophy at 30 mM after 48 hrs by Ames test (reference value: 209 +/- 10 No _unit)
Type: toxicity, organism-based
Conditions: salmonella enterica subsp. enterica serovar typhimurium, 30000 µM

Row | SMILES | Activity
4 | Cc1c(C)c2c(c(C)c1OC(=O)CCC(=O)O)CCC(C)(C(=O)O)O2 (stereo not given) | 216
5 | Cc1c(C)c2c(c(C)c1OC(=O)CCC(=O)O)CCC(C)(C(=O)NCC1CC(C)(C)N([O])C1(C)C)O2 (stereo not given) | 205

Tested on: Salmonella typhimurium
Experiment: Genotoxicity in Salmonella typhimurium TA102 harboring […] mutant assessed as frequency of reversion from histidine auxotrophy to prototrophy at 0.35 mM after 48 hrs by Ames test (reference value: 209 +/- 10 No _unit)
Type: toxicity, organism-based
Conditions: salmonella enterica subsp. enterica serovar typhimurium, 350 µM

Row | SMILES | Activity
6 | CC(C)(C)OO [TERT-BUTYL HYDROPEROXIDE] | 482

Tested on: Salmonella enterica subsp. enterica serovar Typhimurium
Experiment: Antioxidant activity in Salmonella typhimurium TA102 harboring […] mutant assessed as inhibition of t-BuO2H-dependant mutant formation at 0.3 uM preincubated with compound followed by t-BuO2H addition after 48 hrs by Ames test
Type: functional
Conditions: not given

Row | SMILES | inhibition
7 | Cc1c(C)c2c(c(C)c1OC(=O)CCC(=O)O)CCC(C)(C(=O)O)O2 (stereo not given) | 35%
8 | Cc1c(C)c2c(c(C)c1OC(=O)CCC(=O)O)CCC(C)(C(=O)NCC1CC(C)(C)N([O])C1(C)C)O2 (stereo not given) | 31%

Tested on: Salmonella enterica subsp. enterica serovar Typhimurium
Experiment: Antioxidant activity in Salmonella typhimurium TA102 harboring […] mutant assessed as inhibition of t-BuO2H-dependant mutant formation at 3 uM preincubated with compound followed by t-BuO2H addition after 48 hrs by Ames test
Type: functional
Conditions: not given

Row | SMILES | inhibition
9 | Cc1c(C)c2c(c(C)c1OC(=O)CCC(=O)O)CCC(C)(C(=O)O)O2 (stereo not given) | 35%
10 | Cc1c(C)c2c(c(C)c1OC(=O)CCC(=O)O)CCC(C)(C(=O)NCC1CC(C)(C)N([O])C1(C)C)O2 (stereo not given) | 22%

Tested on: Salmonella enterica subsp. enterica serovar Typhimurium
Experiment: Antioxidant activity in Salmonella typhimurium TA102 harboring […] mutant assessed as inhibition of t-BuO2H-dependant mutant formation at 30 uM preincubated with compound followed by t-BuO2H addition after 48 hrs by Ames test
Type: functional
Conditions: not given

Row | SMILES | inhibition
11 | Cc1c(C)c2c(c(C)c1OC(=O)CCC(=O)O)CCC(C)(C(=O)O)O2 (stereo not given) | 35%
12 | Cc1c(C)c2c(c(C)c1OC(=O)CCC(=O)O)CCC(C)(C(=O)NCC1CC(C)(C)N([O])C1(C)C)O2 (stereo not given) | 18%

Tested on: not listed separately
Experiment: Cytotoxicity against human MCF7 cells assessed as reduction in cell viability after 72 hrs by MTT assay
Type: functional, cell-based
Conditions: MCF7, 72 h

Row | SMILES | IC50
13 | Cc1c(C)c2c(c(C)c1OC(=O)CCC(=O)O)CCC(C)(C(=O)O)O2 (stereo not given) | > 300 µM
14 | Cc1c(C)c2c(c(C)c1OC(=O)CCC(=O)O)CCC(C)(C(=O)NCC1CC(C)(C)N([O])C1(C)C)O2 (stereo not given) | > 300 µM

Tested on: not listed separately
Experiment: Cytotoxicity against human RPMI8226 cells assessed as reduction in cell viability after 72 hrs by MTT assay
Type: functional, cell-based
Conditions: RPMI-8226, 72 h

Row | SMILES | IC50
15 | Cc1c(C)c2c(c(C)c1OC(=O)CCC(=O)O)CCC(C)(C(=O)O)O2 (stereo not given) | 63 µM
16 | Cc1c(C)c2c(c(C)c1OC(=O)CCC(=O)O)CCC(C)(C(=O)NCC1CC(C)(C)N([O])C1(C)C)O2 (stereo not given) | > 300 µM

Tested on: not listed separately
Experiment: Cytotoxicity against human HepG2 cells assessed as reduction in cell viability after 72 hrs by MTT assay
Type: functional, cell-based
Conditions: HepG2, 72 h

Row | SMILES | IC50
17 | Cc1c(C)c2c(c(C)c1OC(=O)CCC(=O)O)CCC(C)(C(=O)O)O2 (stereo not given) | 242 µM
18 | Cc1c(C)c2c(c(C)c1OC(=O)CCC(=O)O)CCC(C)(C(=O)NCC1CC(C)(C)N([O])C1(C)C)O2 (stereo not given) | > 300 µM

Tested on: not listed separately
Experiment: Cytotoxicity against human CEM13 cells assessed as reduction in cell viability after 72 hrs by MTT assay
Type: functional, cell-based
Conditions: CEM13, 72 h

Row | SMILES | IC50
19 | Cc1c(C)c2c(c(C)c1OC(=O)CCC(=O)O)CCC(C)(C(=O)O)O2 (stereo not given) | 191 µM
20 | Cc1c(C)c2c(c(C)c1OC(=O)CCC(=O)O)CCC(C)(C(=O)NCC1CC(C)(C)N([O])C1(C)C)O2 (stereo not given) | > 300 µM

Tested on: not listed separately
Experiment: Cytotoxicity against human U937 cells assessed as reduction in cell viability after 72 hrs by MTT assay
Type: functional, cell-based
Conditions: U-937, 72 h

Row | SMILES | IC50
21 | Cc1c(C)c2c(c(C)c1OC(=O)CCC(=O)O)CCC(C)(C(=O)O)O2 (stereo not given) | 120 µM
22 | Cc1c(C)c2c(c(C)c1OC(=O)CCC(=O)O)CCC(C)(C(=O)NCC1CC(C)(C)N([O])C1(C)C)O2 (stereo not given) | 24 µM

Tested on: not listed separately
Experiment: Cytotoxicity against human MT4 cells assessed as reduction in cell viability after 72 hrs by MTT assay
Type: functional, cell-based
Conditions: MT4, 72 h

Row | SMILES | IC50
23 | Cc1c(C)c2c(c(C)c1OC(=O)CCC(=O)O)CCC(C)(C(=O)O)O2 (stereo not given) | 285 µM
24 | Cc1c(C)c2c(c(C)c1OC(=O)CCC(=O)O)CCC(C)(C(=O)NCC1CC(C)(C)N([O])C1(C)C)O2 (stereo not given) | > 300 µM

Tested on: not listed separately
Experiment: Cytotoxicity against mouse LMTK cells assessed as reduction in cell viability after 72 hrs by MTT assay
Type: toxicity
Conditions: not given

Row | SMILES | IC50 at 72 h
25 | Cc1c(C)c2c(c(C)c1OC(=O)CCC(=O)O)CCC(C)(C(=O)O)O2 (stereo not given) | > 300 µM
26 | Cc1c(C)c2c(c(C)c1OC(=O)CCC(=O)O)CCC(C)(C(=O)NCC1CC(C)(C)N([O])C1(C)C)O2 (stereo not given) | > 300 µM

Tested on: not listed separately
Experiment: Cytotoxicity against hamster AG17-1 cells assessed as reduction in cell viability after 72 hrs by MTT assay
Type: toxicity, cell-based, Cricetulus griseus
Conditions: Chinese hamster

Row | SMILES | IC50 at 72 h
27 | Cc1c(C)c2c(c(C)c1OC(=O)CCC(=O)O)CCC(C)(C(=O)O)O2 (stereo not given) | > 300 µM
28 | Cc1c(C)c2c(c(C)c1OC(=O)CCC(=O)O)CCC(C)(C(=O)NCC1CC(C)(C)N([O])C1(C)C)O2 (stereo not given) | > 300 µM

Tested on: not listed separately
Experiment: Cytotoxicity against human MCF7 cells assessed as reduction in cell viability at 300 uM after 72 hrs by MTT assay
Type: functional
Conditions: MCF7, 72 h

Row | SMILES | inhibition at 300 µM
29 | Cc1c(C)c2c(c(C)c1OC(=O)CCC(=O)O)CCC(C)(C(=O)O)O2 (stereo not given) | 15%
30 | Cc1c(C)c2c(c(C)c1OC(=O)CCC(=O)O)CCC(C)(C(=O)NCC1CC(C)(C)N([O])C1(C)C)O2 (stereo not given) | 24%

Tested on: not listed separately
Experiment: Cytotoxicity against human RPMI8226 cells assessed as reduction in cell viability at 300 uM after 72 hrs by MTT assay
Type: functional
Conditions: RPMI-8226, 72 h

Row | SMILES | inhibition at 300 µM
31 | Cc1c(C)c2c(c(C)c1OC(=O)CCC(=O)O)CCC(C)(C(=O)NCC1CC(C)(C)N([O])C1(C)C)O2 (stereo not given) | 22%

Tested on: not listed separately
Experiment: Cytotoxicity against human HepG2 cells assessed as reduction in cell viability at 300 uM after 72 hrs by MTT assay
Type: functional
Conditions: HepG2, 72 h

Row | SMILES | inhibition at 300 µM
32 | Cc1c(C)c2c(c(C)c1OC(=O)CCC(=O)O)CCC(C)(C(=O)NCC1CC(C)(C)N([O])C1(C)C)O2 (stereo not given) | 18%

Tested on: not listed separately
Experiment: Cytotoxicity against human CEM13 cells assessed as reduction in cell viability at 300 uM after 72 hrs by MTT assay
Type: functional
Conditions: CEM13, 72 h

Row | SMILES | inhibition at 300 µM
33 | Cc1c(C)c2c(c(C)c1OC(=O)CCC(=O)O)CCC(C)(C(=O)NCC1CC(C)(C)N([O])C1(C)C)O2 (stereo not given) | 31%

Tested on: not listed separately
Experiment: Cytotoxicity against human MT4 cells assessed as reduction in cell viability at 300 uM after 72 hrs by MTT assay
Type: functional
Conditions: MT4, 72 h

Row | SMILES | inhibition at 300 µM
34 | Cc1c(C)c2c(c(C)c1OC(=O)CCC(=O)O)CCC(C)(C(=O)O)O2 (stereo not given) | 34%
35 | Cc1c(C)c2c(c(C)c1OC(=O)CCC(=O)O)CCC(C)(C(=O)NCC1CC(C)(C)N([O])C1(C)C)O2 (stereo not given) | 46%

Tested on: not listed separately
Experiment: Cytotoxicity against mouse LMTK cells assessed as reduction in cell viability at 300 uM after 72 hrs by MTT assay
Type: toxicity
Conditions: read-out: INH

Row | SMILES | cytotoxicity at 72 h, 300 µM
36 | Cc1c(C)c2c(c(C)c1OC(=O)CCC(=O)O)CCC(C)(C(=O)O)O2 (stereo not given) | 7%
37 | Cc1c(C)c2c(c(C)c1OC(=O)CCC(=O)O)CCC(C)(C(=O)NCC1CC(C)(C)N([O])C1(C)C)O2 (stereo not given) | 0%

Tested on: not listed separately
Experiment: Cytotoxicity against hamster AG17-1 cells assessed as reduction in cell viability at 300 uM after 72 hrs by MTT assay
Type: toxicity, cell-based, Cricetulus griseus
Conditions: Chinese hamster, read-out: INH

Row | SMILES | cytotoxicity at 72 h, 300 µM
38 | Cc1c(C)c2c(c(C)c1OC(=O)CCC(=O)O)CCC(C)(C(=O)O)O2 (stereo not given) | 27%
39 | Cc1c(C)c2c(c(C)c1OC(=O)CCC(=O)O)CCC(C)(C(=O)NCC1CC(C)(C)N([O])C1(C)C)O2 (stereo not given) | 30%

Tested on: not listed separately
Experiment: Ratio of IC50 for human MCF7 cells to concentration causing antioxidant activity in Salmonella typhimurium TA102 harboring […] mutant
Type: functional
Conditions: not given

Row | SMILES | Ratio
40 | Cc1c(C)c2c(c(C)c1OC(=O)CCC(=O)O)CCC(C)(C(=O)NCC1CC(C)(C)N([O])C1(C)C)O2 (stereo not given) | 100 - 1000

Tested on: not listed separately
Experiment: Ratio of IC50 for human RPMI8226 cells to concentration causing antioxidant activity in Salmonella typhimurium TA102 harboring […] mutant
Type: functional, RPMI-8226
Conditions: not given

Row | SMILES | Ratio
41 | Cc1c(C)c2c(c(C)c1OC(=O)CCC(=O)O)CCC(C)(C(=O)NCC1CC(C)(C)N([O])C1(C)C)O2 (stereo not given) | 100 - 1000

Tested on: not listed separately
Experiment: Ratio of IC50 for human HEPG2 cells to concentration causing antioxidant activity in Salmonella typhimurium TA102 harboring […] mutant
Type: functional
Conditions: not given

Row | SMILES | Ratio
42 | Cc1c(C)c2c(c(C)c1OC(=O)CCC(=O)O)CCC(C)(C(=O)NCC1CC(C)(C)N([O])C1(C)C)O2 (stereo not given) | 100 - 1000

Tested on: not listed separately
Experiment: Ratio of IC50 for human CEM13 cells to concentration causing antioxidant activity in Salmonella typhimurium TA102 harboring […] mutant
Type: functional
Conditions: not given

Row | SMILES | Ratio
43 | Cc1c(C)c2c(c(C)c1OC(=O)CCC(=O)O)CCC(C)(C(=O)NCC1CC(C)(C)N([O])C1(C)C)O2 (stereo not given) | 100 - 1000

Tested on: not listed separately
Experiment: Ratio of IC50 for human MT4 cells to concentration causing antioxidant activity in Salmonella typhimurium TA102 harboring […] mutant
Type: functional
Conditions: not given

Row | SMILES | Ratio
44 | Cc1c(C)c2c(c(C)c1OC(=O)CCC(=O)O)CCC(C)(C(=O)NCC1CC(C)(C)N([O])C1(C)C)O2 (stereo not given) | 100 - 1000

Tested on: not listed separately
Experiment: Ratio of IC50 for human U937 cells to concentration causing antioxidant activity in Salmonella typhimurium TA102 harboring […] mutant
Type: functional, U-937
Conditions: not given

Row | SMILES | Ratio
45 | Cc1c(C)c2c(c(C)c1OC(=O)CCC(=O)O)CCC(C)(C(=O)NCC1CC(C)(C)N([O])C1(C)C)O2 (stereo not given) | 100 - 1000
